The values that follow come from US6462047B1, “Carboline derivatives as cGMP phosphodiesterase inhibitors” (ICOS Corporation, priority 2001, dated 2002).

Data set [1] concerns the target human recombinant PDE5 (Homo sapiens, UniProt O76074). Put plainly: Inhibitory effect on cGMP-PDE (one-step assay adapted from Wells et al.). Type of data set: biochemical. Particulars: human recombinant PDE5, 0.15 μM 8-[H3]-cGMP, 30 minutes incubation, 2% DMSO. As for the experimental part:
cGMP-PDE activity of compounds of the present invention was measured using a one-step assay adapted from Wells et al., Biochim. Biophys. Acta, 384, 430 (1975). The reaction medium contained 50 mM Tris-HCl, pH 7.5, 5 mM magnesium acetate, 250 μg/ml 5′-Nucleotidase, 1 mM EGTA, and 0.15 μM 8-[H^3]-cGMP. The enzyme used was a human recombinant PDE5 (ICOS Corp., Bothell, Wash.).
Compounds of the invention were dissolved in DMSO finally present at 2% in the assay.

Data set [2] deals with Rat aortic smooth muscle cells (RSMC). Put plainly: cGMP level measurements in ANF-stimulated rat aortic smooth muscle cells. The data set is classed as cell-based. To be noted: 30 minutes at 37° C. with compound, then ANF (100 nM) for 10 minutes, dose giving half of the stimulation at saturating concentrations. As for the experimental part:
Rat aortic smooth muscle cells (RSMC), prepared according to Chamley et al., Cell Tissue Res., 177, 503-522 (1977), were used between the 10th and 25th passage at confluence in 24-well culture dishes. Culture media was aspirated and replaced with PBS (0.5 ml) containing the compound tested at the appropriate concentration. After 30 minutes at 37° C., particulates guanylate cyclase was stimulated by addition of ANF (100 nM) for 10 minutes. At the end of incubation, the medium was withdrawn, and two extractions were performed by addition of 65% ethanol (0.25 ml). The two ethanolic extracts were pooled and evaporated until dryness, using a Speed-vac system. cGMP was measured after acetylation by scintillation proximity immunoassay (AMERSHAM). The EC50 values are expressed as the dose-giving half of the stimulation at saturating concentrations.

Data set [3] concerns conscious spontaneously hypertensive rats (SHRs). As to the kind of experiment: Hypotensive effects in conscious spontaneously hypertensive rats. Particulars: orally 5 mg/kg in 5% DMF and 95% olive oil; AUC from 0 to 5 hours of the fall in blood pressure. Type of data set: in vivo, rat. As for the experimental part:
The hypotensive effects of compounds according to the invention as identified in Table 2 were studied in conscious spontaneously hypertensive rats (SHRs). The compounds were administered orally at a dose of 5 mg/kg in a mixture of 5% DMF and 95% olive oil. Blood pressure was measured from a catheter inserted in the carotid artery and recorded for five hours after administration. The results are expressed as Area Under the Curve (AUC) from 0 to 5 hours, mm Hg.hours of the fall in blood pressure over time.

Usually IC50 stands for the concentration that gives 50% inhibition. The term EC50 denotes the concentration at which the effect is half-maximal. What is called melting point is the temperature of the solid-liquid transition. In the case of `CN(C)CCOc1ccc(/C=C/C(=O)N2CCc3c([nH]c4ccccc34)[C@H]2c2ccc3c(c2)CCO3)cn1` [Example 6, (E)-1R-1-[1-(2,3-Dihydrobenzofuran-5-yl)-2,3,4,9-tetrahydro-β-carbolin-2-yl]-3-[6-(2-dimethylaminoethoxy)-pyridin-3-yl]-propene-1-one], the melting point worked out at 155 °C. Further, the half-maximal inhibitory concentration (IC50) in data set [1] was 10 nM. Further, the EC50 in data set [2] is below 1000 nM. Besides, the “SHR AUC PO” value in data set [3] is 95 mm Hg.h.
In the same order, the values of `CNc1ccc(/C=C/C(=O)N2CCc3c([nH]c4ccccc34)[C@H]2c2ccc3c(c2)CCO3)cn1` [Example 8, (E)-(R)-1-[1-(2,3-Dihydrobenzofuran-5-yl)-2,3,4,9-tetrahydro-β-carbolin-2-yl]-3-(6-methylaminopyridin-3-yl)-propene-1-one] are 171 °C, 7 nM, below 1000 nM and 50 mm Hg.h.
In the case of `Nc1ncc(/C=C/C(=O)N2CCc3c([nH]c4ccccc34)[C@H]2c2ccc3c(c2)CCO3)cn1` [Example 21, (E)-1R-1-[1-(2,3-Dihydrobenzofuran-5-yl)-2,3,4,9-tetrahydro-β-carboline-2-yl]-3-(2-amino-5-pyrimidin-5-yl)-propene-1-one], the concentration for half-maximal inhibition (IC50) in data set [1] is 7 nM. Further, the 50% effective concentration (EC50) in data set [2] is below 1000 nM. In data set [3], the “SHR AUC PO” value is on record as 124 mm Hg.h.
`CN1CCN(c2ccc(/C=C/C(=O)N3CCc4c([nH]c5ccccc45)[C@H]3c3ccc4c(c3)CCO4)cn2)CC1` [Example 9, (E)-(R)-1-[1-(2,3-Dihydrobenzofuran-5-yl)-2,3,4,9-tetrahydro-β-carbolin-2-yl]-3-[6-(4-methylpiperazin-1-yl)-pyridin-3-yl]-propene-1-one] came in with a melting point above 260 °C. The IC50 in data set [1] came out at 25 nM. In data set [2], the EC50 is 1000 nM. In data set [3], the “SHR AUC PO” value was 63 mm Hg.h.
In turn, `O=C(/C=C/c1ccccn1)N1CCc2c([nH]c3ccccc23)C1c1ccccc1` (stereo not drawn) [Example 3, (E)-1-[1-phenyl-2,3,4,9-tetrahydro-β-carbolin-2-yl]-3-(pyridin-2-yl)-propene-1-one] came in with a melting point of 130 to 135 °C. Also, the IC50 in data set [1] was 740 nM.
In turn, `O=C(/C=C/c1cccnc1)N1CCc2c([nH]c3ccccc23)C1c1ccc2c(c1)OCO2` (stereo not drawn) [Example 1, (E)-1-[1-(3,4-Methylenedioxyphenyl)-2,3,4,9-tetrahydro-β-carbolin-2-yl]-3-(pyridin-3-yl)-propene-1-one] had a melting point of 240 °C. The concentration for half-maximal inhibition (IC50) in data set [1] was 58 nM. Further, the concentration for a half-maximal effect (EC50) in data set [2] turned out to be 500 nM. The “SHR AUC PO” value in data set [3] amounted to 61 mm Hg.h.
As to `CN1CCN(c2ncc(/C=C/C(=O)N3CCc4c([nH]c5ccccc45)[C@H]3c3ccc4c(c3)CCO4)cn2)CC1` [Example 23], the IC50 in data set [1] stood at 8 nM. The half-maximal effective concentration (EC50) in data set [2] was below 1000 nM. The “SHR AUC PO” value in data set [3] is recorded as 108 mm Hg.h.
For the molecule `CN(C)Cc1occc1/C=C/C(=O)N1CCc2c([nH]c3ccccc23)[C@H]1c1ccc2c(c1)CCO2` [Example 19, (E)-1R-1-[1-(2,3-Dihydrobenzofuran-5-yl)-2,3,4,9-tetrahydro-β-carboline-2-yl]-3-(2-dimethylaminomethyl-furan-3-yl)-propene-1-one], the IC50 in data set [1] was found to be 40 nM. In data set [2], the EC50 is 4000 nM.
For `O=C(/C=C/c1ccccn1)N1CCc2c([nH]c3ccccc23)C1c1ccc2c(c1)OCO2` (stereo not drawn) [Example 2, (E)-1-[1-(3,4-Methylenedioxyphenyl)-2,3,4,9-tetrahydro-β-carbolin-2-yl]-3-(pyridin-2-yl)-propene-1-one], the melting point fell in the range of 135 to 141 °C. In addition, the half-maximal inhibitory concentration (IC50) in data set [1] worked out at 76 nM.
For `O=C(/C=C/c1cnc(N2CCCC2)nc1)N1CCc2c([nH]c3ccccc23)[C@H]1c1ccc2c(c1)CCO2` [Example 22], the IC50 in data set [1] was 6 nM. Moreover, in data set [2], the EC50 was below 1000 nM. For the same molecule, the “SHR AUC PO” value in data set [3] came to 9 mm Hg.h.
For the molecule `O=C(/C=C/c1ccc(N2CCCC2)nc1)N1CCc2c([nH]c3ccccc23)[C@H]1c1ccc2c(c1)CCO2` [Example 10, (E)-(R)-1-[1-(2,3-Dihydrobenzofuran-5-yl)-2,3,4,9-tetrahydro-β-carbolin-2-yl]-3-(6-pyrrolidin-1-yl-pyridin-3-yl)-propene-1-one], the melting point came to 201 °C. Besides, the IC50 in data set [1] amounted to 9 nM. The EC50 in data set [2] was below 1000 nM.
Consider `CN1CCN(Cc2ccc(/C=C/C(=O)N3CCc4c([nH]c5ccccc45)[C@H]3c3ccc4c(c3)CCO4)s2)CC1` [Example 16, (E)-1R-1-[1-(2,3-Dihydrobenzofuran-5-yl)-2,3,4,9-tetrahydro-β-carboline-2-yl]-3-(4-methyl-piperazin-1-ylmethyl-thiophen-2-yl)-propene-1-one], for which the half-inhibitory concentration (IC50) in data set [1] came out at 4 nM. Besides, in data set [2], the 50% effective concentration (EC50) was determined as 3500 nM.
Turning to `O=C(/C=C/c1ccncc1)N1CCc2c([nH]c3ccccc23)C1c1ccc2c(c1)OCO2` (stereo not drawn) [Example 4], the melting point is 224 to 225 °C. The half-maximal inhibitory concentration (IC50) in data set [1] stood at 46 nM. For the same molecule, the EC50 in data set [2] came out at 500 nM.
Take `O=C(/C=C/c1cccnc1)N1CCc2c([nH]c3ccccc23)C1c1ccc2c(c1)CCO2` (stereo not drawn) [Example 5, (E)-1-[1-(2,3-Dihydrobenzofuran-5-yl)-2,3,4,9-tetrahydro-β-carbolin-2-yl]-3-(pyridin-3-yl)-propene-1-one]: the melting point fell in the range of 221 to 222 °C. In addition, the IC50 in data set [1] amounted to 14 nM. In data set [2], the 50% effective concentration (EC50) was below 1000 nM. Also, the “SHR AUC PO” value in data set [3] worked out at 12 mm Hg.h.
Turning to `CN(C)Cc1ccc(/C=C/C(=O)N2CCc3c([nH]c4ccccc34)[C@H]2c2ccc3c(c2)CCO3)s1` [Example 14, (E)-1R-1-[1-(2,3-Dihydrobenzofuran-5-yl)-2,3,4,9-tetrahydro-β-carboline-2-yl]-3-(5-dimethylaminomethyl-thiophen-2-yl)-propene-1-one], the IC50 in data set [1] is 5 nM. The concentration giving a half-maximal response (EC50) in data set [2] amounted to 1500 nM. In addition, in data set [3], the “SHR AUC PO” value amounted to 107 mm Hg.h.
In turn, `COC(=O)c1ccc(/C=C/C(=O)N2CCc3c([nH]c4ccccc34)[C@H]2c2ccc3c(c2)CCO3)nc1` [Example 11, (E)-(R)-6-{3-[1-(2,3-Dihydrobenzofuran-5-yl)-2,3,4,9-tetrahydro-β-carbolin-2-yl]-3-oxo-propenyl}-nicotinic acid methyl ester] registered a melting point above 260 °C. Moreover, the IC50 in data set [1] came out at 27 nM. In addition, in data set [2], the EC50 was below 1000 nM.
Regarding `O=C(/C=C/c1ccc([N+](=O)[O-])s1)N1CCc2c([nH]c3ccccc23)[C@H]1c1ccc2c(c1)CCO2` [Example 26, (E)-1R-1-[1-(2,3-Dihydrobenzofuran-5-yl)-2,3,4,9-tetrahydro-β-carboline-2-yl]-3-(5-nitro-thiophen-2-yl)-propene-1-one], the half-maximal inhibitory concentration (IC50) in data set [1] amounted to 40 nM. For the same molecule, the EC50 in data set [2] was below 1000 nM.
As to `O=C(/C=C/c1ccc(CN2CCCC2)s1)N1CCc2c([nH]c3ccccc23)[C@H]1c1ccc2c(c1)CCO2` [Example 15, (E)-1R-1-[1-(2,3-Dihydrobenzofuran-5-yl)-2,3,4,9-tetrahydro-β-carboline-2-yl]-3-(5-pyrrolidin-1-ylmethyl-thiophen-2-yl)-propene-1-one], the 50% inhibitory concentration (IC50) in data set [1] worked out at 40 nM. Further, the EC50 in data set [2] was found to be 1500 nM. In addition, the “SHR AUC PO” value in data set [3] turned out to be 96 mm Hg.h.
Take `O=C(/C=C/c1cncnc1)N1CCc2c([nH]c3ccccc23)[C@H]1c1ccc2c(c1)CCO2` [Example 20, (E)-1R-1-[1-(2,3-Dihydrobenzofuran-5-yl)-2,3,4,9-tetrahydro-β-carboline-2-yl]-3-(pyrimidin-5-yl)-propene-1-one]: the half-maximal inhibitory concentration (IC50) in data set [1] came to 40 nM. Further, the concentration for a half-maximal effect (EC50) in data set [2] was below 1000 nM. For the same molecule, the “SHR AUC PO” value in data set [3] is reported as 48 mm Hg.h.
The molecule `O=C(O)c1ccc(/C=C/C(=O)N2CCc3c([nH]c4ccccc34)[C@H]2c2ccc3c(c2)CCO3)nc1` [Example 12, (E)-(R)-6-{3-[1-(2,3-Dihydrobenzofuran-5-yl)-2,3,4,9-tetrahydro-β-carbolin-2-yl]-3-oxo-propenyl}-nicotinic acid] displayed a melting point of 183 °C. The IC50 in data set [1] turned out to be 3 nM. For the same molecule, in data set [2], the half-maximal effective concentration (EC50) came out at 5000 nM.
As to `CN(C)Cc1ccc(/C=C/C(=O)N2CCc3c([nH]c4ccccc34)[C@H]2c2ccc3c(c2)CCO3)o1` [Example 17, (E)-1R-1-[1-(2,3-Dihydrobenzofuran-5-yl)-2,3,4,9-tetrahydro-β-carboline-2-yl]-3-(5-dimethylaminomethyl-furan-2-yl)-propene-1-one], the IC50 in data set [1] is 20 nM. Besides, in data set [2], the concentration for a half-maximal effect (EC50) is below 1000 nM. Also, the “SHR AUC PO” value in data set [3] is listed as 40 mm Hg.h.
